Data from ChEMBL document CHEMBL1122779, “Antiinflammatory agents. 3. Synthesis and pharmacological evaluation of 2-amino-3-benzoylphenylacetic acid and analogues” (J Med Chem, 1984).

Legend:
Mus musculus [1] = assay: Oral analgesic activity was determined in mice by the acetylcholine-induced abdominal constriction assay upon ip administration of acetylcholine bromide 5 hours following oral administration; type: functional; details: Abdomen
Rattus norvegicus [2] = species: Rattus norvegicus; assay: Evaluated for acute potency in pleural effusion assay; type: functional
Rattus norvegicus [3] = species: Rattus norvegicus; assay: Evaluated for chronic potency in adjuvant arthritis assay; type: functional
Rattus norvegicus [4] = assay: Percent change in avg. volume of pleural fluid at a dose of 0.16 mg/kg and 5-h response is evaluated by Evans blue-carrageenan induced pleural effusion assay
Mus musculus [5] = assay: Oral analgesic activity was determined in mice by the acetylcholine-induced abdominal constriction assay upon ip administration of acetylcholine bromide 20 min following oral administration; type: functional; details: Abdomen
Rattus norvegicus [6] = assay: Acute gastric toxicity (single oral dose) in male fasted rats; type: organism-based, Stomach; details: in vivo
Rattus norvegicus [7] = assay: Evaluated for chronic intestinal toxicity (multiple oral dose) in rats; type: organism-based; details: in vivo
Rattus norvegicus [8] = assay: Percent change in average volume of pleural fluid at a dose of 4.0 mg/kg and 5-h response by Evans blue-carrageenan induced pleural effusion assay.; type: functional
Cyclooxygenase = molecular target: T1, Cyclooxygenase (Bos taurus, UniProt O62664+O62698)
T1 sequence (O62664 whole entry): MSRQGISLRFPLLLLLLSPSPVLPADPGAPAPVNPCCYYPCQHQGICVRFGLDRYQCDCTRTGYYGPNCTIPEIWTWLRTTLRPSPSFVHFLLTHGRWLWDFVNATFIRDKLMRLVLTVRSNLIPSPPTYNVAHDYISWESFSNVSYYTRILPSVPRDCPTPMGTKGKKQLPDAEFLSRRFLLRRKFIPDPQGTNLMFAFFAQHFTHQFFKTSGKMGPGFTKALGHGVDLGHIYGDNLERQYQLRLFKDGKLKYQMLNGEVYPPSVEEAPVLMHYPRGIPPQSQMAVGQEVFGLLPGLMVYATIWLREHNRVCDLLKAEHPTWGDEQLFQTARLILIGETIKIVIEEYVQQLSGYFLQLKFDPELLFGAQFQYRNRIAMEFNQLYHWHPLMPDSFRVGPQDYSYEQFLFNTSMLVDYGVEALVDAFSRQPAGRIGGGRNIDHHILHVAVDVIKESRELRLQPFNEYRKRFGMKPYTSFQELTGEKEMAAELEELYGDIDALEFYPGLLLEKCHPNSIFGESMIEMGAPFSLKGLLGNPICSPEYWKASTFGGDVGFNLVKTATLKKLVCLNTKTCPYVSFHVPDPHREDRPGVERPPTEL
T1 sequence (O62698 whole entry): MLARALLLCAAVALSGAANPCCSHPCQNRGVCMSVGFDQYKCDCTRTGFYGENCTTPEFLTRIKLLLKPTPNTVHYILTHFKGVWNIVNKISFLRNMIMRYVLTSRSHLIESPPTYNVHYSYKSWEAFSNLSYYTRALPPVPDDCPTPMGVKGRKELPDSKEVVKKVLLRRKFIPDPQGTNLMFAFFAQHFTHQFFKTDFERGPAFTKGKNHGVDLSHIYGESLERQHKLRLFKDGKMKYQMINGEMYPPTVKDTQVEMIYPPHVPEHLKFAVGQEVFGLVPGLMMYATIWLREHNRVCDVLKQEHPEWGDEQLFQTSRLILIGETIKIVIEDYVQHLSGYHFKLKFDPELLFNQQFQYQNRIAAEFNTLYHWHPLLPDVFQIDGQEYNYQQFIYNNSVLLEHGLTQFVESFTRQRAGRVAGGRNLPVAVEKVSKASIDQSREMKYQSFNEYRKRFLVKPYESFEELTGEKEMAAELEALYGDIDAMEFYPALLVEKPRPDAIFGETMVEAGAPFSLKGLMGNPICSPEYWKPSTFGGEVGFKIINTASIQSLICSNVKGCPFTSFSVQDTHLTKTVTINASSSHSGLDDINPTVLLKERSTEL
Description: Inhibition of prostaglandin G/H synthase obtained from bovine seminal vesicles.

Rattus norvegicus [9] = assay: Percent change in average volume of pleural fluid at a dose 4 mg/kg of indomethacin and 5-h response is evaluated by Evans blue-carrageenan induced pleural effusion assay; type: functional
Rattus norvegicus [10] = assay: Percent change in average volume of pleural fluid at a dose of 100 mg/kg and 5-h response by Evans blue-carrageenan induced pleural effusion assay.; type: functional
[11] = Chronic therapeutic index as ratio of potency in adjuvant-induced arthritis assay to that of potency in intestinal toxicity assay; details: read-out: Chronic TI
[12] = Acute therapeutic index as ratio of potency in pleural effusion to that of potency in gastric toxicity assay; type: tissue-based; details: Stomach; read-out: Acute TI
Rattus norvegicus [13] = assay: Percent change in avg. volume of pleural fluid at a dose 4 mg/kg of indomethacin and 5-h response is evaluated by Evans blue-carrageenan induced pleural effusion assay; type: functional
Rattus norvegicus [14] = assay: Percent change in avg. volume of pleural fluid at a dose of 4.0 mg/kg and 5-h response is evaluated by Evans blue-carrageenan induced pleural effusion assay; type: functional

SMILES	ED50 (Mus musculus [1]) [mg/kg]	Potency (Rattus norvegicus [2])	Potency (Rattus norvegicus [3])	Change (Rattus norvegicus [4]) [%]	ED50 (Mus musculus [5]) [mg/kg]	Gastric toxicity (Rattus norvegicus [6])	Intestinal toxicity (Rattus norvegicus [7])	Change (Rattus norvegicus [8]) [%]	IC50 (Cyclooxygenase) [nM]	Change (Rattus norvegicus [9]) [%]	Change (Rattus norvegicus [10]) [%]	selectivity ratio [11]	selectivity ratio [12]	Change (Rattus norvegicus [13]) [%]	Change (Rattus norvegicus [14]) [%]
COc1ccc2c(c1)c(CC(=O)O)c(C)n2C(=O)c1ccc(Cl)cc1 [INDOMETHACIN]	0.22	1	1	-7	0.22	1	1	-33	–	–	–	–	–	–	–
Cc1cc(CC(=O)[O-])c(N)c(C(=O)c2ccc(Cl)cc2)c1.[Na+]	0.65	1.7	0.63	0	0.78	0.27	0.4	-32	700	-35	-38	–	–	–	–
Nc1c(CC(=O)[O-])cccc1C(=O)c1ccc(Cl)cc1.[Na+]	0.93	3.8	2.2	-16	0.1	0.9	1.4	-29	300	-33	-38	1.6	4.3	–	–
Nc1ccc(CC(=O)O)cc1C(=O)c1ccccc1	–	–	–	–	–	–	–	-4	–	–	–	–	–	-31	–
Nc1c(CC(=O)[O-])cccc1C(=O)c1ccccc1.[Na+] [AMFENAC SODIUM]	> 3	0.7	1.1	-13	0.11	0.7	0.4	-26	–	-33	-35	–	–	–	–
Nc1c(CC(=O)[O-])cc(F)cc1C(=O)c1ccc(Cl)cc1.[Na+]	1.4	3.6	1.9	-15	0.28	1.1	0.5	-37	100	-34	–	–	–	–	–
Nc1c(CC(=O)[O-])cc(F)cc1C(=O)c1ccc(Br)cc1.[Na+]	0.29	8.4	2.2	–	0.18	1.7	1.9	-28	40	-25	-28	1.2	4.9	–	–
Nc1c(CC(=O)[O-])cc(Cl)cc1C(=O)c1ccc(I)cc1.[Na+]	0.24	3.8	5.5	–	0.24	3.5	2.2	-35	30	-33	-38	2.5	1.1	–	–
Nc1c(CC(=O)[O-])cccc1C(=O)c1ccc(I)cc1.[Na+]	0.18	6.9	8.1	-17	0.13	5.3	3.3	-31	70	-32	-44	2.5	1.3	–	–
Nc1c(CC(=O)[O-])cccc1C(=O)c1ccc(Br)cc1.Nc1c(CC(=O)[O-])cccc1C(=O)c1ccc(Br)cc1.O.O.O.[Na+].[Na+] [BROMFENAC SODIUM]	0.13	7.5	5.8	-27	0.07	1.4	1.8	-43	80	-41	–	3.2	5.4	–	–
Nc1c(CC(=O)[O-])cccc1C(=O)c1ccc(Cl)cc1Cl.[Na+]	> 0.3	5.3	4.2	-16	0.21	1	0.6	-37	600	-33	-41	–	–	–	–
Nc1c(CC(=O)[O-])cc(Cl)cc1C(=O)c1ccc(Cl)cc1.[Na+]	0.31	4.6	1.7	-18	0.23	1.2	1.2	-41	300	-32	–	1.4	3.8	–	–
Nc1cc(C(=O)c2ccccc2)ccc1CC(=O)[O-].[Na+]	–	–	–	–	–	–	–	–	–	–	-2	–	–	–	-31
Nc1cccc(C(=O)c2ccccc2)c1CC(=O)[O-].[Na+]	–	–	–	–	–	–	–	-2	–	–	–	–	–	-35	–
Nc1c(CC(=O)[O-])cc(Cl)cc1C(=O)c1ccc(Br)cc1.[Na+]	0.13	15	4.6	–	0.05	1.5	2.9	-41	20	-40	-38	1.6	10	–	–
Cc1cc(CC(=O)O)n(C)c1C(=O)c1ccc(Cl)cc1 [ZOMEPIRAC]	0.59	0.78	0.67	–	0.21	0.25	0.63	–	15000	–	–	1.1	3.1	–	–
Nc1ccc(C(=O)c2ccccc2)cc1CC(=O)O	–	–	–	–	–	–	–	–	–	-43	–	–	–	–	11
COc1cc(CC(=O)[O-])c(N)c(C(=O)c2ccccc2)c1.[Na+]	–	–	–	–	–	–	–	-18	5400	–	–	–	–	-48	–
